In patent US9914874B2, “Composite nanoparticles including a malonic acid derivative” (3M INNOVATIVE PROPERTIES COMPANY, priority 2013, dated 2018):

Assay: Solubility of the malonic acid derivative in toluene
Assay type: physicochemical
Conditions: based on total weight of the solution

CC(CC=C(C(=O)O)C(=O)O)CC(C)(C)C (stereo not shown) [Example 3, 2-(3,5,5-Trimethylhexylidene)propanedioic Acid]
solubility in toluene: greater than 1 weight percent
